In publication PMC11063903, “Engineering a human P2X2 receptor with altered ligand selectivity in yeast” (The Journal of Biological Chemistry, 2024):
Changes are numbered by the printed parent chain.

Experiments:
[1] = target: T1, WT P2X2 (Homo sapiens, UniProt Q9UBL9); assay: Fast GCaMP-mScarletI assay in yeast, WT P2X2; assay type: cell-based; conditions: for Bottom, best fit value / Hillslope, best fit value / Top, best fit value: four-parameter logistic fit of ΔF/ΔT
T1 construct: expressed in transfected cells; host or cells: S. cerevisiae BY4741 background, P2X2 genome-integrated under a galactose-inducible promoter
T1 sequence (Q9UBL9 1-471): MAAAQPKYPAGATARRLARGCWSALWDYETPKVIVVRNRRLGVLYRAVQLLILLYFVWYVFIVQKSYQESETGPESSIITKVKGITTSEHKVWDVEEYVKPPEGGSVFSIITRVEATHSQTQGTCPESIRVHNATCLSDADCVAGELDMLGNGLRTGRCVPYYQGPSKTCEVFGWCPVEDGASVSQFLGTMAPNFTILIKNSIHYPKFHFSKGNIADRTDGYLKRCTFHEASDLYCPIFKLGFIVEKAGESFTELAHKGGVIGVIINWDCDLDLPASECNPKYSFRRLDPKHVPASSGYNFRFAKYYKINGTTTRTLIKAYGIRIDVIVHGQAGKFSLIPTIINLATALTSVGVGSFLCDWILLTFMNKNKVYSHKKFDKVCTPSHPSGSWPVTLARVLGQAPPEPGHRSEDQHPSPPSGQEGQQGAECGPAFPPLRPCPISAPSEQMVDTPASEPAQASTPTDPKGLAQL
Experimental: (§1) Figure 4 Unnatural-ligand gating in LBD libraries.A, WT P2X2 was tested with 1 mM ATP, 500 μM AMP-PNP, and compared to ATP with the broken receptor (K81C K83C) control with 1 mM ATP in the fast GCaMP-mScarletI assay (n = 3). […] B, heat map summarizing AMP-PNP signaling (ΔF/ΔT, fast GCaMP-mScarletI assay) in the site-saturation libraries (n = 2–3). All values are normalized to WT P2X2 with saturating amounts of AMP-PNP (500 μM) and therefore represent low signal (ΔF/ΔT) compared to the ATP ligand. C, F301W, F303Y, and A304W were combinatorially combined and tested against the WT, K81C K83C broken P2X2, and the single mutant clones with both ATP (1 mM, black) and AMP-PNP (500 μM, pink). […] Values here represent signal onset and are not normalized to a positive control (n = 2–5). D–K, dose response of each P2X variant with both ATP (black) and AMP-PNP (pink) in the fast GCaMP-mScarletI assay (n = 3). Statistics were performed via one-way ANOVA with Dunnett’s multiple comparisons with to the “broken” K81C K83C negative control. ∗ represents a p value ≤0.05, ∗∗ is p ≤ 0.01, and ∗∗∗ is p ≤ 0.001.
Given that the yeast-based screen seemed to recapitulate important structural and functional features of human ion channel function, we hypothesized that it might be possible to engineer new P2X2 functionalities in yeast, including new ligand specificity. […] We screened our 133-member library in the presence of 500 μM AMP-PNP (Fig. S7). While the AMP-PNP signal was uniformly low, three substitutions (F301W, F303Y, and A304W) increased signaling 2.5 to 2.8 times relative to the negative control receptor (Figs. 4B, and S7, D, F, and G). To gain a more complete view of the properties of these mutants, dose–response curves were generated with ATP and AMP-PNP (Fig. 4, D–G, and Table S2).
(§2) GCaMP assays were performed as follows. P2X2 GCaMP strains were designed with a bi-cistronic reporter, in which the GCaMP protein was followed by a 2A peptide and a mScarletI reporter ([53]). The co-translated mScarletI was designed to act as a control for plasmid loss, GCaMP breakage via nonsense mutation, and contamination. […] P2X2-GCaMP strains were cultured and induced as previously described. Samples were induced for 24 h to allow for the accumulation of the mature GCaMP protein. Cells were washed three times in 0.1 M MES/Tris buffer and resuspended with MES/Tris with supplemental calcium. Cells were loaded onto a black, clear bottom microplate and imaged on a FlexStation3 plate reader. Samples were imaged in “flex” mode. Samples were imaged for 48 s at an interval of 1.6 s. Fluorescence was measured with an excitation at 485 nm, and emission 525 nm. At the 21 s mark, 100 μl ligand solution was transferred to the cells. For strains with mScarlet, fluorescence was read with excitation 570 nm/emission 610 nm. Slopes were calculated from the last 6 points of measurement and were normalized to the positive control samples. Any replicate in which the mScarlet value was measured to be over 2 standard deviations less than the mean for that set was discarded from further analysis.
(§3) For multiple comparisons in the site-saturation screening data, One-way ANOVA with Dunnett’s multiple comparisons test was performed where every sample was compared to the “broken” negative control. Significance was plotted where ∗ represents a p value ≤0.05, ∗∗ is p ≤0.01, and ∗∗∗ is p ≤0.001. Dose–response curves were fit with nonlinear regression software using a four-parameter logistic curve. All statistics were calculated and plotted in Graphpad Prism software.

[2] = target: T2, P2X2 F303Y+A304W (Homo sapiens, UniProt Q9UBL9, A304W/F303Y); assay: Fast GCaMP-mScarletI assay in yeast, P2X2 F303Y+A304W; assay type: cell-based; conditions: for Bottom, best fit value / Hillslope, best fit value / Top, best fit value: four-parameter logistic fit of ΔF/ΔT
T2 construct: expressed in transfected cells; host or cells: S. cerevisiae BY4741 background
T2 sequence (Q9UBL9 1-471 F303Y/A304W): T1 sequence (Q9UBL9 1-471) with F303Y, A304W
Experimental: as §1
The combined mutations were synergistic, with F303Y + A304W having a predicted additive effect of ca. Ten-fold, relative to the 73-fold seen.
as §2, §3

[3] = four-parameter logistic fit, n = 3, unit inferred, unit M, read-out: EC50, best fit value

Nc1ncnc2c1ncn2[C@@H]1O[C@H](COP(=O)(O)OP(=O)(O)OP(=O)(O)O)[C@@H](O)[C@H]1O [ATP]
Bottom, best fit value ([1]; n = 3): 1.37
Hillslope, best fit value ([1]; n = 3): 2.27
Top, best fit value ([1]; n = 3): 70.62
EC50 [1, 3]: 5.75 µM
Bottom, best fit value ([2]; n = 3): 1.98
Hillslope, best fit value ([2]; n = 3): 3.50
Top, best fit value ([2]; n = 3): 150.00
EC50 [2, 3]: 6.67 µM

Nc1ncnc2c1ncn2[C@@H]1O[C@H](COP(=O)(O)OP(=O)(O)NP(=O)(O)O)[C@@H](O)[C@H]1O [AMP-PNP]
signal of wildtype P2X2 receptor ([1]; 500 μM AMP-PNP, Fig. 4A): nearly undetectable signal
Bottom, best fit value ([1]; n = 3): 0.429
Hillslope, best fit value ([1]; n = 3): -1
Top, best fit value ([1]; n = 3): 1.129
increased intracellular calcium amplitudes compared to the WT receptor ([2]; AMP-PNP, abstract): over 100 fold
increased signal compared to the WT channel (rate of signal onset ΔF/ΔT) ([2]; at 500 μM AMP-PNP): 73 fold
Bottom, best fit value ([2]; n = 3): 1.254
Hillslope, best fit value ([2]; n = 3): 2.515
Top, best fit value ([2]; n = 3): 114.4
